# From patent publication US20230218773A1 (priority 2020, published 2023)
# Numbered stars: 1 amine (or outer) side, 2 acyl side, 3 side chain; on linkers, the order of the positions; unused ones are H or OH. Square brackets hold non-standard residues; d marks the D form. Peptide text beside a SMILES is read from it. * marks the point of attachment. Dolaproine = CO[C@@H]([C@@H]1CCCN1)[C@@H](C)C(=O)O; Hexanoyl(6-maleimido) = O=C1C=CC(=O)N1CCCCCC(=O)*; Dil = CC[C@H](C)[C@H](NC)[C@@H](CC(=O)O)OC; PABC = O=C(OCc1ccc(N[*:1])cc1)[*:2]; X1 = C[C@@H](N*)[C@@H](O)c1ccccc1; Cit = NC(=O)NCCC[C@H](N)C(=O)O; NMeV = CN[C@H](C(=O)O)C(C)C
# Columns and labels:
# [1] = system: soft-tissue sarcoma; details: minimal cardiac toxicity; cited from earlier work
# [2] = Tissue distribution of free and total MMAE in MIA PaCa2 tumor-bearing mice; assay type: in vivo; details: 24 hours after single dose
# Method: (§1) Quantification of MMAE by LC-MS: An Agilent 1260 Infinity liquid chromatography system (G1312B) with an Agilent 6530 Q-TOF mass spectrometer was used to detect the drug MMAE. 5 μL of sample was injected into an Eclipse Plus C18 column (50×2.1 mm, 5 μm) followed by a gradient elution at 0.7 mL/min. […] Electrospray ionization source was used in positive mode. To derive standard curves for MMAE, drug standards were spiked into blank matrix along with internal standard. Samples were then prepared for LC-MS analysis. MMAE was monitored at m/z 740 [M+Na]+, 719 [M+H]+, 371 [M+Na+1-1]^2+ and 360 [M+2H]^2±. Deuterated (D8) MMAE as internal standard was monitored at m/z 748 [M+Na]+, 727 [M+H]+, 375 [M+Na+1-1]^2+ and 364 [M+2H]^2±. The peak area of each drug standard was derived by the peak area of internal standard. The peak area ratios were then plotted as a function of standard concentrations and data points were fitted using linear regression (GraphPad). MMAE concentrations in test samples were quantified using the peak area ratio between MMAE and D8-MMAE and calculated using the standard curves.
# (§2) Pharmacokinetics and tissue distribution: Thirty-six mice bearing MIA PaCa2 tumors were equally divided into 4 groups. […] All treatment arms were dosed with an equivalent amount of MMAE at 0.5 mg/kg. At 10 min, 24 h, 48 h, 72 h, 96 h and 168 h post-administration, blood samples were collected from 3 mice in each group through tail vein. Plasma was separated immediately using BD microtainer. At 24 h, 72 h and 168 h after administration, 3 mice from each group were euthanized to collect liver, kidney, and tumor tissue samples. Plasma and tissue samples were stored at −80° C. until further analysis.
# (§3) To determine the amount of free MMAE in plasma samples, 1 μL D8-MMAE (250 ng/mL) internal control was added into 10 μL plasma samples and then mixed with 89 μL acetonitrile. The mixture was thoroughly mixed and centrifuged (12,000 rpm, 20 min, 4° C.). The supernatant was collected for LC-MS quantification. To determine free MMAE in mouse tissues, weighed tissues were homogenized with ice-cold PBS containing protease inhibitors (cOmplete™ ULTRA Tablets, Roche) using a tissue homogenizer (Fisher Scientific) to a final concentration of 600 mg/mL. The homogenized suspension was centrifuged at 12,000 rpm for 20 min at 4° C. As an internal control, 1 μL D8-MMAE (250 ng/mL) was added into 20 μL of the supernatant and then mixed with 79 μL acetonitrile. After the mixture was mixed and centrifuged, the supernatant was collected for LC-MS for quantification.
# (§4) Briefly, freshly prepared papain (Sigma-Aldrich) was added to plasma and tissue samples at a final concentration of 2 mg/mL, and the mixtures were incubated at 40° C. for 16 hours. The resulting samples were treated as method described above for LC-MS quantification.
# [3] = Body weight change at 0.9 mg/kg MMAE equivalent dose; assay type: in vivo, mice; details: multiple dosing
# Method: FIGS. 15A-15E: Body weight change of mice when dosed with 0.9 mg/kg MMAE equivalent dose. […] Body weights of mice during and after treatments were monitored. (n=5). Data shown as mean±standard deviation. Mice in MMAE group (B) were dosed with 0.9 mg/kg MMAE at Day 0 and 4.
# [4] = Maximum tolerated dose in healthy athymic NCr nude mice; assay type: in vivo
# Method: Maximum tolerated dose: All animal experiments were approved and performed under the guidelines by the Institutional Animal Care and Use Committee at. The University of Texas at Austin. […] Mice were injected every 4 days for a total of 4 repeated doses. Body weight and general appearance of each mice were monitored for 10 days after the last dose of injection.
# [5] = system: MIA PaCa2 xenografts; assay: In vivo antitumor efficacy, MIA PaCa2 xenografts; set-up: species or system mice; details: every 4 days, 4 doses; for tumor growth: 0.5 mg/kg MMAE equivalent
# Method: Tumor-bearing mouse models: Eight to ten week old athymic female NCr nude mice and C57BL/6 mice (Taconic) were used to establish xenograft mouse model and syngeneic mouse model, respectively. […] The cell suspension was then gently mixed with equal volume of Matrigel® (Corning). Subsequently, 100 μL of each mixed cell suspension (MIA PaCa2 and mT4-2D) was subcutaneously inoculated into both flanks of NCr nude mice and C57BL/6 mice, respectively. After the tumors were palpable, tumor volumes were measured two times a week. The tumor volume was calculated as (1/2×length×[…]).
# In vivo antitumor efficacy: Mice bearing MIA PaCa2 xenografts and syngeneic mT4-2D C57BL/6 mice were randomized when the tumor sizes were ˜150 mm^3, respectively. […] Tumor sizes were measured by a digital caliper twice a week starting from Day 0. Mice were euthanized when either tumor volume exceeded 1500 mm^3.
# Statistical analysis: All of the experiments were repeated at least three times. Statistical significance was calculated using two-way ANOVA followed by Tukey's test. Survival curve was analyzed by log-rank test using GraphPad Prism 8 software.
# [6] = Plasma pharmacokinetics of free and total MMAE in MIA PaCa2 tumor-bearing mice; assay type: in vivo; details: for plasma concentration of free MMAE: 10 min after single intravenous dose, 0.5 mg/kg MMAE equivalent
# Method: as §1, §2, §3, §4
# [7] = system: HUVEC cells; assay: MTT assay, HUVEC cells; assay type: cell-based, human
# Description: (§5) Cell lines and culture: Human pancreatic cancer cell line MIA PaCa2 cells and primary umbilical vein endothelial cells (HUVEC) were purchased from American Type Culture Collection (ATCC). Human pancreatic cancer cell line PANC1 cells were kindly provided by Dr. Zhengrong Cui (College of Pharmacy, The University of Texas at Austin). Mouse mT4-2D pancreatic cancer cell line, which is derived from a Kras^+/LSL-G12DTp53^+/LSL-R172HPdx1-Cre transgenic model of pancreatic cancer, was kindly provided by Dr. Kyaw Aung (Livestrong Cancer Institutes, Dell Medical School, The University of Texas at Austin). MIA PaCa2 cells, PANC1, and mT4-2D cells were maintained in Dulbecco's […] with high glucose (Corning). Cell culture medium was supplemented with 10% fetal bovine serum (Gibco) and 100 U/mL penicillin-streptomycin (Gibco). HUVEC cells were maintained according to protocol provided by ATCC. All cells were maintained at 37° C. in a humidified atmosphere with 5% carbon dioxide.
# MTT Assay: Cells were seeded in 96 well plates at a density of 5,000 cells/well. […] After the formazan crystals were completely dissolved, the absorbance at 570 nm was read by a plate reader (Infinite®200 Pro, Tecan). Cell survival rate was calculated as follows: […]
# (§6) The IC50 (half maximal inhibitory concentration) was calculated using GraphPad Prism 8.
# [8] = system: PANC1 cells; assay: MTT assay, PANC1 cells; assay type: cell-based, human
# Description: as §5
# (§7) MTT Assay: Cells were seeded in 96 well plates at a density of 5,000 cells/well. Cells were incubated overnight to allow attachment to the bottom of the plates. […] Untreated cells were used as control. After the treatments, 10 μL of MTT (3-(4,5-Dimethylthiazol-2-yl)-2,5-Diphenyltetrazolium Bromide, 5 mg/mL) was added to each well and incubated for an additional 4 hours. Then, the medium was replaced with 150 μL dimethyl sulfoxide (DMSO). After the formazan crystals were completely dissolved, the absorbance at 570 nm was read by a plate reader (Infinite®200 Pro, Tecan). Cell survival rate was calculated as follows: […]
# as §6
# [9] = system: MIA PaCa2 cells; assay: MTT assay, MIA PaCa2 cells; assay type: cell-based, human
# Description: as §5, §7, §6
# [10] = system: PANC1 cells; assay: Uptake of fluorescein-albumin conjugate with macropinocytosis inhibitor, PANC1 cells; assay type: cell-based, human; details: EIPA 50 μM and 75 μM, flow cytometer
# Method: (§8) FIGS. 10A-10B: (A) MIA PaCa2 cells and (B) PANC1 cells were seeded in 12-well plates at 5×10^5 cells/well and allowed to attach overnight. Cells were first starved in serum free medium for 2 hours followed by treatment with macropinocytosis inhibitor (EIPA: 5-(N-Ethyl-N-isopropyl)amiloride) for 30 min. […] Then cells were detached and analyzed by flow cytometer (Accuri). […] (*p<0.05, **p<0.01)
# [11] = system: MIA PaCa2 cells; assay: Uptake of fluorescein-albumin conjugate with macropinocytosis inhibitor, MIA PaCa2 cells; assay type: cell-based, human; details: EIPA 50 μM and 75 μM, flow cytometer
# Method: as §8
# [12] = total MMAE in plasma, 0.5 mg/kg i.v.
smiles,measurement,setting,value
COc1cccc2c1C(=O)c1c(O)c3c(c(O)c1C2=O)C[C@@](O)(/C(CO)=N/NC(=O)CCCCCN1C(=O)C=CC1=O)C[C@@H]3O[C@H]1C[C@H](N)[C@H](O)[C@H](C)O1 [aldoxorubicin],safely administered dose compared to doxorubicin,[1],3.47 fold
"CC[C@H](C)[C@@H]([C@@H](CC(=O)N1CCC[C@H]1[C@H](OC)[C@@H](C)C(=O)N[C@H](C)[C@@H](O)c1ccccc1)OC)N(C)C(=O)[C@@H](NC(=O)[C@H](C(C)C)N(C)C(=O)OCc1ccc(NC(=O)[C@H](CCCNC(N)=O)NC(=O)[C@@H](NC(=O)CCCCCN2C(=O)C=CC2=O)C(C)C)cc1)C(C)C [MMAE-MAL, mc-vc-pab-MMAE] ({Hexanoyl(6-maleimido)}-V[Cit][PABC][NMeV]V[Dil][Dolaproine]-X1)",amount of free MMAE in tumor compared to the MMAE group,[2],about 2 fold
same,accumulation of free MMAE in tumor,[2]; 0.5 mg/kg MMAE,2.2 % ID/g
same,total MMAE in liver,[2]; 0.5 mg/kg MMAE,0.3 % ID/g
same,total MMAE in tumor,[2]; 0.5 mg/kg MMAE,3.3 % ID/g
same,free MMAE in the liver and kidney,[2]; no statistical difference to MMAE group,low levels
same,loss of body weight,[3],~20%
same,maximum tolerated dose compared with ALDC1,[4]; percent weight loss from original weight,lower maximum tolerated dose
same,tumor growth,[5],significantly delayed
same,median survival of tumor-bearing mice,[5]; 0.5 mg/kg equivalent to MMAE,81 days
same,plasma concentration of free MMAE,[6],669.67 ± 78.94 ng/mL
same,premature release of MMAE in plasma compared to the ALDC1 group,"[6]; free MMAE, 10 min after dosing, 0.5 mg/kg",13 fold
same,AUC 0-∞,[6]; [12],141.1938 µg·h/mL
same,AUMC 0-∞,[6]; [12],2827552.1 ng/ml*h^2
same,Cl,[6]; [12],3.54E−06 (mg/kg)/(ng/ml)/h
same,MRT,[6]; [12],20.02 h
same,T1/2,[6]; [12],27.82 h
same,AUC 0-t,"[6]; total MMAE in plasma, time 0 to 168 hours, 0.5 mg/kg i.v.",139.9281 µg·h/mL
"CC[C@H](C)[C@@H]([C@@H](CC(=O)N1CCC[C@H]1[C@H](OC)[C@@H](C)C(=O)N[C@H](C)[C@@H](O)c1ccccc1)OC)N(C)C(=O)[C@@H](NC(=O)[C@@H](NC)C(C)C)C(C)C [MMAE, monomethyl auristatin E] (H-[NMeV]V[Dil][Dolaproine]-X1)",IC50,[7]; 24 hours,67 pM
same,IC50,[7]; 48 hours,12 pM
same,loss of body weight,[3],> 20%
same,IC50,[8]; 24 hours,520 pM
same,IC50,[8]; 48 hours,210 pM
same,IC50,[8]; 72 hours,210 pM
same,maximum tolerated dose,"[4]; MMAE equivalent dose, every 4 days, 4 doses, body weight change within 20%",approximately 0.5 mg/kg
same,tumor growth,[5],slowed down tumor growth
same,plasma concentration of free MMAE,[6],86.03 ± 17.78 ng/mL
same,IC50,[9]; 24 hours,540 pM
same,IC50,[9]; 48 hours,460 pM
same,IC50,[9]; 72 hours,500 pM
"CCN(c1nc(N)c(C(=O)N=C(N)N)nc1Cl)C(C)C [EIPA, 5-(N-Ethyl-N-isopropyl)amiloride]",inhibition of uptake of fluorescein-albumin conjugate (ALDC1),[10],significantly inhibit
same,inhibition of uptake of fluorescein-albumin conjugate (ALDC1),[11],significantly inhibit
